These results are taken from PMC7238232, “Acamprosate Is a Substrate of the Human Organic Anion Transporter (OAT) 1 without OAT3 Inhibitory Properties: Implications for Renal Acamprosate Secretion and Drug–Drug Interactions” (Pharmaceutics, 2020).

Data set [1] has as its target T1, OAT3 (Homo sapiens, UniProt Q8TCC7).
T1 sequence (Q8TCC7 1-542): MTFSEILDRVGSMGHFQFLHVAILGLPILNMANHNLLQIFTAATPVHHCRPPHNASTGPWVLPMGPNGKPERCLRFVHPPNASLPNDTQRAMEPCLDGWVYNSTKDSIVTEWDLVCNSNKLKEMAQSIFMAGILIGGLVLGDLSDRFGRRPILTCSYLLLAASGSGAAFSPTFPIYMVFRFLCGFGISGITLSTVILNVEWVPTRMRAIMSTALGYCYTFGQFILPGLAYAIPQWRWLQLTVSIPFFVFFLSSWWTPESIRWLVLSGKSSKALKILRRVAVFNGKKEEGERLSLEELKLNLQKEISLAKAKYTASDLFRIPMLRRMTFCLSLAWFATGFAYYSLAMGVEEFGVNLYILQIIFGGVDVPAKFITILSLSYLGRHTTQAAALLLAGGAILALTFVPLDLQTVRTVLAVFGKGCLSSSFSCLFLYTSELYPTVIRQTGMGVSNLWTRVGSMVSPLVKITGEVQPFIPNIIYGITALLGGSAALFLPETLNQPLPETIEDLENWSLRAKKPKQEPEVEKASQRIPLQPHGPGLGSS
Kind of data set: [3H]-E3S uptake and its inhibition in HEK293-Flp-In OAT3 cells. Type of data set: cell-based. The protocol: (§1) All uptake experiments were performed on 24- or 96-well plates. Before the experiment initiation, the cells were incubated with either 500 or 200 µL∙well^−1 prewarmed buffer for 10 min at 37 °C in a microplate incubator (VWR International AB, Stockholm, Sweden), without shaking. […] The experiment was stopped by adding 200 µL∙well^−1 of ice-cold buffer and subsequent rinse three times with the same amount of buffer. In Lab. 1 the sample analysis of the OAT1/OAT3/mock studies consisted in removing the rinsing buffer and lysing the cells with 70 µL 1M NaOH, following by incubation for 60 min at 37 °C and 100 rpm. A total of 50 µL of cell lysate from each well was transferred to 96-well Luma plates bottom coated with dry scintillant. Then, 2∙20 µL of each donor and three 50 µL blank samples were applied on the same plate. The dry plates were covered with transparent seals and analyzed using a TopCount NXT Microplate Scintillation and Luminescence Counter (Perkin Elmer, Waltham, MA, USA). The remaining 20 µL cell lysate was neutralized with 20 µL 1M HCl∙well^−1, samples were mixed thoroughly and the total protein content in all the wells was measured using a BCA protein assay kit, microplate method, and a Tecan Safire II fluorometer (Tecan Austria GmbH, Grödig, Austria). For the experiments in Lab. 2, the cells were lysed by adding 200 µL 0.1% Triton X-100 and incubated for 5 min at 37 °C and 100 rpm. […] The total protein content was measured by using a BCA protein assay kit and a FLUOStar Omega fluorescence microplate reader (BMG Labtech, Ortenberg, Germany). The protein assay for the OAT3 and mock cell lines was performed in four independent wells of each cell line, seeded and treated in the same manner as the cells used in the uptake assay. For all the OAT1, OAT3, and mock isotope uptake studies, the radiolabelled tracer accumulation (pmol) in each well was calculated by first determining the activity of the isotope (DPM∙pmol^−1) from the radioactivity (DPM) of the donor sample divided by the theoretical isotope concentration (pmol), then dividing the total radioactivity in the well (DPM) to the specific activity of the isotope (DPM∙pmol^−1).
(§2) A range of preincubation solutions was prepared at the same concentrations of acamprosate applied in the inhibition assays. Acamprosate was dissolved in HBSS buffered with 10 mM HEPES and the pH was adjusted to 7.40 ± 0.01. The preincubation solutions were prewarmed to 37 °C and applied to the corresponding cells after removing the cell growth medium. The preincubation was done for 3 h, at 37 °C, without shaking. After the preincubation, the solutions were removed, and the inhibition experiment was performed as described in the Section 2.6.
The obtained intracellular amounts (pmol) were normalized to the assay time (min) and cell surface area (cm^2) or protein amount (mg protein) to obtain a term hereafter referred to as uptake rate. […] Assuming competitive interaction, equilibrium dissociation constants, Ki, were calculated from the IC50 value for each substrate/inhibitor pair, at substrate Km, using the Cheng–Prusoff equation [24].

Data set [2] deals with T2, OAT1 (Homo sapiens, UniProt Q4U2R8).
T2 sequence (Q4U2R8 1-563): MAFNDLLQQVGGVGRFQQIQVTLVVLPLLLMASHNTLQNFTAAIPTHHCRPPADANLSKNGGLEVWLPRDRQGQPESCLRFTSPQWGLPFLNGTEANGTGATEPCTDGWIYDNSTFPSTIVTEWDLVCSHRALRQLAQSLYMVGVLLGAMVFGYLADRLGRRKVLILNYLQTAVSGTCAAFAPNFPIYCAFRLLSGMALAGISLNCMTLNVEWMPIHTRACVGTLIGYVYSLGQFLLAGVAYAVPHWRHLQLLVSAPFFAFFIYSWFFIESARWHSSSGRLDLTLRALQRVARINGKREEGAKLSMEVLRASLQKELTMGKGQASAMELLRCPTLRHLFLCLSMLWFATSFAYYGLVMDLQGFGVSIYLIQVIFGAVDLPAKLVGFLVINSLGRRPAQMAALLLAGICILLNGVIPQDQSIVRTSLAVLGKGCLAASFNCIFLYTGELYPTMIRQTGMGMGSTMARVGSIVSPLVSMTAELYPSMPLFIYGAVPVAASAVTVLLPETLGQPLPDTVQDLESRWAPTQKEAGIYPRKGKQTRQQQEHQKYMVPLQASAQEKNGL
Kind of data set: [14C]-PAH uptake and its inhibition in HEK293-Flp-In OAT1 cells. Here is the method:
as §1, §2
The obtained intracellular amounts (pmol) were normalized to the assay time (min) and cell surface area (cm^2) or protein amount (mg protein) to obtain a term hereafter referred to as uptake rate. The uptake rate of acamprosate as a function of concentration was fitted to a Michaelis–Menten type equation which includes a saturable and a non-saturable uptake component, (1) V=Vmax · [S]/Km +[S]+P · [S] where V is the substrate uptake rate; Vmax is the maximal uptake rate; P is a constant related to non-saturable apparent uptake, i.e., factors such as passive diffusion, unspecific binding and residual compound present after washing steps, and [S] is the substrate concentration (µM). […] Assuming competitive interaction, equilibrium dissociation constants, Ki, were calculated from the IC50 value for each substrate/inhibitor pair, at substrate Km, using the Cheng–Prusoff equation [24].

Data set [3] relates to ASBT. The following applies: Caco-2 cells, preliminary data; cited from earlier work.

“Also recorded” adds a separate entry of the source. Read-outs that look alike come from different tables or passages of the source.

Turning to `CC(=O)NCCCS(=O)(=O)O` [acamprosate, acetylhomotaurinate], the IC50 is > 10000 µM in data set [1]; > 10000 µM in data set [1] (read-out: IC50, Estrone-3-Sulfate, input for DDI index, Table A1); 582 µM in data set [2] (IC50, 3 h, inhibition of PAH uptake via OAT1, 9.5 µM [14C]-PAH, after 3 h preincubation with inhibitor, Lab. 2); 638 µM in data set [2] (IC50, inhibition of PAH uptake via OAT1, 9.5 µM [14C]-PAH, 3 min, applied concomitantly, Lab. 2); 1390 µM in data set [2] (IC50, inhibition of PAH uptake via OAT1, 9.5 µM [14C]-PAH, 5 min, Lab. 1); 287 to 1230 µM in data set [2] (human, hek293-flp-in oat1 cells, IC50, p-Aminohippuric Acid (PAH), input for DDI index, Table A1, for acamprosate interval of obtained values). The IC50 was 631 µM in data set [2] (log IC50 ± log S.E.M., 3 h, inhibition of PAH uptake via OAT1, after 3 h preincubation, Lab. 2, log of IC50 in µM); 1260 µM in data set [2] (log IC50 ± log S.E.M., inhibition of PAH uptake via OAT1, 9.5 µM [14C]-PAH, 5 min, Lab. 1, log of IC50 in µM); 631 µM in data set [2] (log IC50 ± log S.E.M., inhibition of PAH uptake via OAT1, 3 min, applied concomitantly, Lab. 2, log of IC50 in µM). In data set [1] (0.02 µM [3H]-E3S, 200 µM E3S, 300 µM probenecid, 1000 or 10,000 µM acamprosate, Lab. 2), the “effect on uptake of [3H]-E3S in OAT3 expressing cells” value is recorded as “did not affect”. Also, in data set [1] (all applied acamprosate concentrations, up to 10 mM), the “inhibition of [3H]-E3S uptake via OAT3, with and without 3 h preincubation” value is “lack of inhibitory effect; also recorded: did not inhibit”. Also, the “effect on uptake of [14C]-PAH in OAT1 expressing cells” value in data set [2] (9.5 µM [14C]-PAH, 200 µM PAH, 300 µM probenecid, 1000 and 10,000 µM acamprosate, Lab. 1) is “significantly decreased”. Moreover, the Ki in data set [2] (Ki of acamprosate on PAH uptake, fit to competitive kinetics (Equation 4), Lab. 2) was 1230 ± 341 µM; in data set [2] (Ki, inhibition of PAH uptake via OAT1, 3 h, Cheng-Prusoff, after 3 h preincubation, Lab. 2) it was 287 µM; in data set [2] (Ki, inhibition of PAH uptake via OAT1, Cheng-Prusoff from IC50, competitive inhibition assumed, Lab. 1) it was 1140 µM; in data set [2] (Ki, inhibition of PAH uptake via OAT1, Cheng-Prusoff, applied concomitantly, Lab. 2), 315 µM; in data set [2] (OAT1 inhibiting Ki-value) it was 638 µM; in data set [2] (human, Ki values, inhibition of OAT1-mediated transport of PAH, range over the two laboratories) it was 582 to 1230 µM. The “effect of 3 h preincubation on inhibition of [14C]-PAH uptake” value in data set [2] (OAT1 expressing cells, 0–10,000 µM acamprosate, 200 µM PAH, 300 µM probenecid, Lab. 2) is “no apparent effect”. The “mechanism of inhibition of OAT1-mediated PAH transport” value in data set [2] (PAH uptake with 0, 625, 1250 or 2500 µM acamprosate, Lab. 2) was “competitive”. In data set [3], the “inhibition of substrate transport via ASBT” value was “did not inhibit”.

A word on the IC50: it is the concentration needed to halve the response being measured. The term Ki denotes a dissociation constant, usually derived from enzyme kinetics or from competition with a known ligand. Low values mean higher affinity, high ones lower affinity.
